Data from patent publication US6869955B2, “Tetrahydropteridines and pyridylpiperazines for treatment of neurological disorders” (Bristol-Myers Squibb Pharma Company, priority 1996, dated 2005).

melting point [°C] | Structure (SMILES)
146 to 147 | CCCCN(CC)c1nc(C)nc2c1NC(=O)CN2c1ccc(C(C)C)cc1Br [Example 1, 8-(2-bromo-4-isopropylphenyl)-4-(ethylbutylamino)-2-methyl-5,6,7,8-tetrahydropteridin-6-one]
238 to 239 | Cc1nc(-c2ccccc2C(F)(F)F)c2c(n1)N(c1ccc(C(C)C)cc1Br)CC(=O)N2 [Example 17, 8-(2-bromo-4-isopropylphenyl)-2-methyl-4-(2-trifluoromethylphenyl)-5,6,7,8-tetrahydropteridin-6-one]
148 to 149 | CCCCN(CC)c1nc(C)nc2c1NC(=S)CN2c1ccc(C(C)C)cc1Br [Example 131, 8-(2-bromo-4-isopropylphenyl)-4-(ethylbutylamino)-2-methyl-5,6,7,8-tetrahydropteridin-6-thione]
207 to 208 | CCCCN1C(=O)CN2C(=O)CN(c3ccc(C(C)C)cc3Br)c3nc(C)nc1c32 [Example 501, 10-[2-bromo-4-(1-methylethyl)-phenyl]-4-butyl-9,10-dihydro-2-methyl-4H,8H-pyrazino[3,2,1-de]pteridine-5,8(6H)-dione]
